According to patent US20260209234A1, “SUBSTITUTED DIHYDROPYRROLO[3,4-D]PYRIMIDINE COMPOUNDS AND THEIR USE IN TREATING MEDICAL CONDITIONS” (Karuna Therapeutics, Inc., priority 2022, published 2026):

How the values were obtained:
human M4 receptor = biological target: T1, human M4 receptor (Homo sapiens, UniProt P08173); test: M4 GTPγS PAM assay; assay type: biochemical; conditions: membranes of CHO-K1 cells stably expressing human M4; EC20 acetylcholine 40 nM; 35S-GTP
T1 construct: expressed in transfected cells
T1 sequence (P08173 1-479): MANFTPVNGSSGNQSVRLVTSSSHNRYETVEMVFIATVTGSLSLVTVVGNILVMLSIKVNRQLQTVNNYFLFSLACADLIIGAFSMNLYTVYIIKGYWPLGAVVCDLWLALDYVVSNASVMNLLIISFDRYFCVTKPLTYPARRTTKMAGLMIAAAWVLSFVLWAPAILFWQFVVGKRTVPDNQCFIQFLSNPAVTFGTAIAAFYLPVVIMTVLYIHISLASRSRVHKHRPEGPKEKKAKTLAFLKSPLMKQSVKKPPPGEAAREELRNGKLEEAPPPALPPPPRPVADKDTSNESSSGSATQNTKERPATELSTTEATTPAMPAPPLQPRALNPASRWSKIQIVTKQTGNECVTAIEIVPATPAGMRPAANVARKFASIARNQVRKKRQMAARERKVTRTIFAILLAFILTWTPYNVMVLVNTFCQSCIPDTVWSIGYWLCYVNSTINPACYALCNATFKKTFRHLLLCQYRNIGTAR
How it was run: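 CHO-K1 membranes stably expressing human M4, preincubated with compound and 0.1 μM GDP (final) in 20 mM HEPES, 10 mM MgCl2, 100 mM NaCl, pH 7.4, then EC20 acetylcholine (40 nM final). 35S-GTPγS binding 1 h at room temperature, filtration and scintillation counting.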

hM4 receptors = biological target: T2, hM4 receptors (Homo sapiens, UniProt P08173); test: Human M4 PAM pERK assay; assay type: cell-based; conditions: CHO cells expressing hM4; EC20 of acetylcholine (10 nM final); TR-FRET
T2 construct: expressed in transfected cells; host or cells: CHO cells
T2 sequence (P08173 1-479): T1 sequence (P08173 1-479)

Row | EC50 (human M4 receptor) [µM] | EC50 (hM4 receptors) [µM] | Structure (SMILES)
1 | ≤ 0.1 | ≤ 0.1 | COc1nc(C#N)nc2c1C(C)N(C(=O)CC1CN(c3ccnc(C(F)(F)F)c3)C1)C2 (single isomer, unassigned) [Compound I-6, 4-Methoxy-5-methyl-6-(2-(1-(2-(trifluoromethyl)pyridin-4-yl)azetidin-3-yl)acetyl)-6,7-dihydro-5H-pyrrolo[3,4-d]pyrimidine-2-carbonitrile]
2 | ≤ 0.1 | 0.1 to 0.5 | COc1nc(C)nc2c1C(C)N(C(=O)CC1CN(c3ccnc(C(F)(F)F)c3)C1)C2 (single isomer, unassigned) [Compound I-52, 1-(4-Methoxy-2,5-dimethyl-5,7-dihydro-6H-pyrrolo[3,4-d]pyrimidin-6-yl)-2-(1-(2-(trifluoromethyl)pyridin-4-yl)azetidin-3-yl)ethan-1-one]
